Series [1] is described as follows: The drug is tested on Bifidobacterium ruminantium strain: fecal isolate for biotransformation. The drug concentrations were measured before and after a 12-h incubation by liquid-chromatography-coupled mass spectrometry (LC–MS). As to conditions: 2 µM.
Series [2] in a line: The drug is tested on Collinsella aerofaciens strain: ATCC25986 for biotransformation. The drug concentrations were measured before and after a 12-h incubation by liquid-chromatography-coupled mass spectrometry (LC–MS). The note with it: 2 µM.
The nature of series [3]: The drug is tested on Alistipes indistinctus strain: DSM22520 for biotransformation. The drug concentrations were measured before and after a 12-h incubation by liquid-chromatography-coupled mass spectrometry (LC–MS). The note with it: 2 µM.
Series [4] is described as follows: The drug is tested on Bacteroides caccae strain: ATCC43185 for biotransformation. The drug concentrations were measured before and after a 12-h incubation by liquid-chromatography-coupled mass spectrometry (LC–MS). As to conditions: 2 µM.
Series [5] can be described thus: The drug is tested on Bacteroides cellulosilyticus strain: DSM14838 for biotransformation. The drug concentrations were measured before and after a 12-h incubation by liquid-chromatography-coupled mass spectrometry (LC–MS). As to conditions: 2 µM.
The nature of series [6]: The drug is tested on Bacteroides finegoldii strain: DSM17565 for biotransformation. The drug concentrations were measured before and after a 12-h incubation by liquid-chromatography-coupled mass spectrometry (LC–MS). As to conditions: 2 µM.
Series [7] can be described thus: The drug is tested on Bacteroides uniformis strain: ATCC8492 for biotransformation. The drug concentrations were measured before and after a 12-h incubation by liquid-chromatography-coupled mass spectrometry (LC–MS). As to conditions: 2 µM.
A short description of series [8]: The drug is tested on Odoribacter splanchnicus strain: fecal isolate for biotransformation. The drug concentrations were measured before and after a 12-h incubation by liquid-chromatography-coupled mass spectrometry (LC–MS). As to conditions: 2 µM.
The nature of series [9]: The drug is tested on Clostridium sp. strain: fecal isolate for biotransformation. The drug concentrations were measured before and after a 12-h incubation by liquid-chromatography-coupled mass spectrometry (LC–MS). As to conditions: 2 µM.
Series [10] in a line: The drug is tested on Clostridium scindens strain: ATCC35704 for biotransformation. The drug concentrations were measured before and after a 12-h incubation by liquid-chromatography-coupled mass spectrometry (LC–MS). As to conditions: 2 µM.
The nature of series [11]: The drug is tested on Clostridium symbiosum strain: ATCC14940 for biotransformation. The drug concentrations were measured before and after a 12-h incubation by liquid-chromatography-coupled mass spectrometry (LC–MS). The note with it: 2 µM.
A short description of series [12]: The drug is tested on Enterococcus faecalis strain: V583 for biotransformation. The drug concentrations were measured before and after a 12-h incubation by liquid-chromatography-coupled mass spectrometry (LC–MS). The note with it: 2 µM.
Series [13] is described as follows: The drug is tested on Eubacterium rectale strain: ATCC33656 for biotransformation. The drug concentrations were measured before and after a 12-h incubation by liquid-chromatography-coupled mass spectrometry (LC–MS). As to conditions: agathobacter rectalis, 2 µM.
Series [14] is described as follows: The drug is tested on Escherichia coli strain: BW25113 for biotransformation. The drug concentrations were measured before and after a 12-h incubation by liquid-chromatography-coupled mass spectrometry (LC–MS). The note with it: 2 µM.
The conditions of series [15]: bacteroides eggerthii, 12 h, 2 µM.
Description: The drug is tested on Bacteroides eggerthii strain: DSM20697 for biotransformation. The drug concentrations were measured before and after a 12-h incubation by liquid-chromatography-coupled mass spectrometry (LC–MS)
The conditions of series [16]: parabacteroides distasonis, 12 h, 2 µM.
Description: The drug is tested on Parabacteroides distasonis strain: ATCC8503 for biotransformation. The drug concentrations were measured before and after a 12-h incubation by liquid-chromatography-coupled mass spectrometry (LC–MS)
The conditions of series [17]: segatella copri, 12 h, 2 µM.
Description: The drug is tested on Prevotella copri strain: DSM18205 for biotransformation. The drug concentrations were measured before and after a 12-h incubation by liquid-chromatography-coupled mass spectrometry (LC–MS)
For series [18] the following is noted: bacteroides thetaiotaomicron, 12 h, 2 µM.
Description: The drug is tested on Bacteroides thetaiotaomicron strain: 7330 for biotransformation. The drug concentrations were measured before and after a 12-h incubation by liquid-chromatography-coupled mass spectrometry (LC–MS)
The conditions of series [19]: parabacteroides johnsonii, 12 h, 2 µM.
Description: The drug is tested on Parabacteroides johnsonii strain: DSM18315 for biotransformation. The drug concentrations were measured before and after a 12-h incubation by liquid-chromatography-coupled mass spectrometry (LC–MS)

Regarding `CC(C)(C)NC(=O)[C@H]1CC[C@H]2[C@@H]3CC[C@H]4NC(=O)C=C[C@]4(C)[C@H]3CC[C@]12C` [FINASTERIDE], the “Bacterial Biotransformation” value in series [1] is given as “Compound NOT metabolized”; in [2] it was “Compound NOT metabolized”; in series [3] it was “Compound NOT metabolized”; in series [4] it was “Compound NOT metabolized”; in series [5], “Compound NOT metabolized”; in series [6] it was “Compound metabolized”. Moreover, the “Bacterial Biotransformation” value in series [7] was “Compound metabolized”; in series [8], “Compound metabolized”; in series [9], “Compound NOT metabolized”; in series [10] it was “Compound metabolized”; in [11], “Compound NOT metabolized”; in series [12], “Compound NOT metabolized”. In addition, the “Bacterial Biotransformation” value is on record as “Compound NOT metabolized” in series [13]; “Compound NOT metabolized” in [14]; “Compound metabolized” in series [15]; “Compound NOT metabolized” in [16]; “Compound NOT metabolized” in series [17].
For the compound `N#Cc1ccc(C(c2ccc(C#N)cc2)n2cncn2)cc1` [LETROZOLE], the “Bacterial Biotransformation” value in series [1], in series [2], in series [3], in series [4], in series [5] and in [6] was “Compound NOT metabolized” in each case. Also, the “Bacterial Biotransformation” value in series [7], in series [8], in series [9], in [10], in series [11] and in [12] was “Compound NOT metabolized” in each case. Moreover, the “Bacterial Biotransformation” value in [14], in series [15], in series [18], in series [16] and in series [19] was “Compound NOT metabolized” each time.
As to `COC(=O)Nc1nc2ccc(C(=O)c3ccccc3)cc2[nH]1` [MEBENDAZOLE], the “Bacterial Biotransformation” value in series [1] is reported as “Compound metabolized”; in series [3], “Compound NOT metabolized”; in [4] it was “Compound NOT metabolized”; in series [5] it was “Compound NOT metabolized”; in series [7] it was “Compound metabolized”; in series [8] it was “Compound metabolized”. Also, the “Bacterial Biotransformation” value in series [9] is “Compound metabolized”; in series [10], “Compound NOT metabolized”; in series [11], “Compound NOT metabolized”; in series [12], “Compound NOT metabolized”; in series [13] it was “Compound NOT metabolized”; in [14] it was “Compound NOT metabolized”. The “Bacterial Biotransformation” value in [15] is “Compound metabolized”; in [16], “Compound metabolized”; in series [19], “Compound NOT metabolized”.
In the case of `CN1C(=O)CC(C)(c2ccccc2)C1=O` (stereo not given) [METHSUXIMIDE], the “Bacterial Biotransformation” value in series [1], in series [2], in series [3], in series [4], in series [5] and in [6] was “Compound NOT metabolized” in each case. Besides, the “Bacterial Biotransformation” value is “Compound NOT metabolized” in series [7]; “Compound NOT metabolized” in series [8]; “Compound metabolized” in [9]; “Compound NOT metabolized” in series [10]; “Compound NOT metabolized” in series [11]; “Compound NOT metabolized” in series [12]. In addition, the “Bacterial Biotransformation” value was “Compound metabolized” in series [14]; “Compound NOT metabolized” in series [15]; “Compound NOT metabolized” in series [18]; “Compound NOT metabolized” in series [19]; “Compound NOT metabolized” in series [17].
As for `CN(C)C(=O)Oc1cccc([N+](C)(C)C)c1.[Br-]` [NEOSTIGMINE BROMIDE], the “Bacterial Biotransformation” value in series [1], in series [2], in [3], in series [4], in [5] and in [6] was “Compound NOT metabolized” in each case. Besides, the “Bacterial Biotransformation” value in series [7] is recorded as “Compound metabolized”; in series [8] it was “Compound NOT metabolized”; in [9], “Compound NOT metabolized”; in [10], “Compound NOT metabolized”; in series [11], “Compound NOT metabolized”; in series [12], “Compound NOT metabolized”. Also, the “Bacterial Biotransformation” value in [13] is on record as “Compound NOT metabolized”; in series [14], “Compound NOT metabolized”; in series [18], “Compound metabolized”; in series [16], “Compound NOT metabolized”; in series [19] it was “Compound NOT metabolized”.
For the compound `CO[C@]12C[C@@H](COC(=O)c3cncc(Br)c3)CN(C)[C@@H]1Cc1cn(C)c3cccc2c13` [NICERGOLINE], the “Bacterial Biotransformation” value in series [1] was “Compound NOT metabolized”; in series [3], “Compound NOT metabolized”; in series [4], “Compound NOT metabolized”; in [5] it was “Compound metabolized”; in series [6], “Compound NOT metabolized”; in [7] it was “Compound metabolized”. Also, the “Bacterial Biotransformation” value in [8], in series [9], in series [10], in series [11], in series [12] and in series [14] was “Compound NOT metabolized” each time. Besides, the “Bacterial Biotransformation” value in series [15], in series [18], in [16], in series [19] and in series [17] was “Compound NOT metabolized” throughout.
With `CCN(CC)CC#CCOC(=O)C(O)(c1ccccc1)C1CCCCC1.Cl` (stereo not given) [OXYBUTYNIN CHLORIDE], the “Bacterial Biotransformation” value in series [1] was “Compound metabolized”; in series [2], “Compound NOT metabolized”; in series [3], “Compound NOT metabolized”; in series [4] it was “Compound NOT metabolized”; in series [5], “Compound NOT metabolized”; in series [7], “Compound metabolized”. The “Bacterial Biotransformation” value in series [8] is “Compound metabolized”; in series [9], “Compound metabolized”; in [10], “Compound NOT metabolized”; in series [11], “Compound metabolized”; in series [12] it was “Compound metabolized”; in series [14], “Compound NOT metabolized”. Further, the “Bacterial Biotransformation” value in series [18], in series [16] and in [19] was “Compound NOT metabolized” throughout.

Values taken from ChEMBL document CHEMBL5303573, “Mapping human microbiome drug metabolism by gut bacteria and their genes” (Nature, 2019).
